{"source": "patent US8299097B2", "about": "“Methods for treating inflammatory disorders” (The Brigham and Women's Hospital, Inc., priority 2008, dated 2012)", "key": {"[1]": {"test_system": "CHO cells expressing CysLT1R, CysLT2R, or P2Y12 receptors", "assay": "Calcium flux in Fura-2-AM-loaded CHO transfectants", "format": "cell-based, human", "conditions": "LTE4 500 nM, ADP 100 μM; ADP response reflects endogenous P2Y receptors"}, "human blood platelets": {"test_system": "human blood platelets", "assay": "Platelet activation, cytofluorographic detection of P-selectin (CD62P)", "format": "cell-based", "conditions": "ADP 100 μM or LTE4 1 μM, 10 min", "procedure": "(§1) FIG. 6. […] Each antibody (Ab) was diluted in 50 μl of sterile saline. […] 6A. PAS stains of the lungs of representative mice treated with isotype control (top) or with an anti-CD42 platelet-depleting antibody (bottom). 6B. Inflammation (top) and goblet cell metaplasia (bottom) in the lungs of mice treated with the indicated LT and antibody. A cohort of mice was treated with clopidogrel as indicated. Results in 6B are from a single experiment with 5 mice per group. […] 6C. […] Results are from a single experiment performed three times on different donors.\n(§2) Platelets accumulate in the lungs of asthmatic individuals (Jeffery, P. K., et al. 1989. Am. Rev. Respir. Dis. 140:1745-1753), and are also recruited to the lungs of ovalbumin sensitized and challenged mice by an IgE-dependent mechanism (Pitchford, S. C., et al. 2008. Am. J. Respir. Crit. Care Med. 177:604-612)."}, "human P2Y12": {"biological_target": "human P2Y12 (Homo sapiens, UniProt Q9H244)", "sequence (Q9H244 whole entry)": "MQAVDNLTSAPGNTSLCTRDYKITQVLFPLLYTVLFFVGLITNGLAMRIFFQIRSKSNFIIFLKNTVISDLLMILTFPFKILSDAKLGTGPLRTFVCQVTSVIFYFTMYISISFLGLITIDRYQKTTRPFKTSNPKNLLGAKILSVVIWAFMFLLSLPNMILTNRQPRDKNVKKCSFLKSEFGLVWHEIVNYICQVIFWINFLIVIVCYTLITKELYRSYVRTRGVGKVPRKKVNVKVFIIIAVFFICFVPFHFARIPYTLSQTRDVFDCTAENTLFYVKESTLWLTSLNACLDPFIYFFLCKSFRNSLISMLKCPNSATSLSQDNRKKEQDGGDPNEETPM", "assay": "Binding of cys-LTs to membranes of CHO cells stably expressing the human P2Y12 receptor", "set-up": "polyhistidine (HIS) tag (C); expressed in transfected cells", "description": "A P2Y12 receptor cDNA was amplified by reverse transcriptase polymerase chain reaction (RT-PCR) from RNA extracted from primary hMCs and cloned into a mammalian expression vector. Expression was confirmed by detection of a histidine (HIS) tag by flow cytometry. Another cohort of CHO cells were stably transfected with a P2Y12 receptor construct in reverse orientation as a negative control. […] The cys-LT-induced ERK activation blocked by pre-treatment of the cells with pertussis toxin (PTX), was attenuated by treatment with the P2Y12 receptor-selective antagonist 2-methylthioadenosine monophosphate (2-MesAMP) (FIG. 1C), and was resistant to MK571, an inhibitor that blocks CysLT1R and some P2Y receptors (Mamedova, L., et al. 2005. Biochem. Pharmacol. 71:115-125). […] These responses were resistant to PTX and 2-MesAMP, and susceptible to MK571 in the case of the CysLT1R transfectants.\nA human P2Y12 receptor cDNA was amplified by 30 cycles of PCR from reverse-transcribed total RNA extracted from primary cord blood hMCs. The primer sequences were 5′-[…] (SEQ ID NO: 1) and 3′-[…] (SEQ ID NO: 2). The fragment was cloned into a TA vector (INVITROGEN™). After verifying the nucleotide sequence, the fragment was subcloned into the multiple cloning site of the expression vector pEF1/His B, encoding a C-terminal polyhistidine (HIS) tag. A plasmid expressing the P2Y12 receptor construct in the forward orientation were transfected into CHO cells using Fugene HD reagent according to manufacturer's protocol. A construct in the reverse sequence was transfected in parallel as a negative control. […]\n[^3H] […] Protein concentration was determined using Biorad Protein Assay Kit. […] The residual membrane-associated [^3H] on the filter was determined in 2 ml scintillation fluid by beta counter (Perkin Elmer). For [^3H]ADP, specific binding was determined by subtracting the amount of [^3H] bound in the presence of 100 μM 2-MesADP from total binding."}, "P2Y12 receptors [2]": {"biological_target": "T1, P2Y12 receptors (Mus musculus, UniProt Q9CPV9)", "T1 sequence (Q9CPV9 whole entry)": "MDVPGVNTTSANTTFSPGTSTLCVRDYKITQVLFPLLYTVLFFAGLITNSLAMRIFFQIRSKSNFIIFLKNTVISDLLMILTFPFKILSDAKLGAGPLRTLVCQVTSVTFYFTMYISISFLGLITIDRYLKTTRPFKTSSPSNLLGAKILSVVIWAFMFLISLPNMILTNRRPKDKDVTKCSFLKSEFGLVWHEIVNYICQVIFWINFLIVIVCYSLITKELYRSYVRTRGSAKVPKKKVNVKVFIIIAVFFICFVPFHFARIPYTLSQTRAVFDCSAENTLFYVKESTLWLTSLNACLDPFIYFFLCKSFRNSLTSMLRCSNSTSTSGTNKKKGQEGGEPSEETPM", "conditions": "both antigen doses (3 and 10 μg Der f)", "quoted_text": "Role of P2Y12 receptors in inflammation mediated by dust mite allergen. C57BL/6 mice were treated intranasally with the indicated dose of Dermatophagoides farinae (Der f) extract twice weekly for 3 weeks. Animals were euthanized 24 h after the last dose. […] Effect of clopidogrel treatment on bronchovascular inflammation and goblet cell metaplasia in C57BL/6 mice subjected to intranasal challenge with the indicated doses of an extract from the house dust mite. Results are the mean±SEM from 5 mice/group. The experiment was repeated three times with similar results.\nTo determine whether pharmacologic blockade of P2Y12 receptors altered pulmonary inflammatory responses in a more physiologic model of pulmonary inflammation, C57BL/6 mice were administered an extract of house dust mite Dermatophagoides farinea (Der f) intranasally twice weekly for three weeks, with or without clopidogrel treatment. Two different doses of Der f were used to elicit moderate (at 3 μg) and severe (at 10 μg) inflammation, respectively.\nFor Der f-mediated pulmonary inflammation, 6-8 week old C57BL/6 mice were lightly anaesthetized and received either 3 or 10 μg of Der f extract (Greer Labs) on days 0, 3, 7, 10, 14 and 17. Some mice received clopidogrel throughout the duration of the experiment. Mice were euthanized 24 h after the last intranasal instillation.\n2.5 μm thick glycolmethacrylate sections were stained with H&E for general morphologic examination. […] The extent of cellular infiltration in the bronchovascular bundles was evaluated without knowledge of the particular treatment and was categorized arbitrarily as grade 0=no inflammation, grade 1=mild inflammation, grade 2=moderate inflammation, grade 3=severe inflammation. 15 bronchovascular bundles of each mouse were evaluated. […] The length of basal lamina of corresponding bronchus was measured by Image J (NIH image analysis software). […] The data were expressed as the average of goblet cell counts stained in each bronchus in each section per mm bronchial basal lamina."}, "mouse CD42b (GPIbα)": {"test_system": "mouse CD42b (GPIbα)", "assay": "Platelet depletion in sensitized mice given LTE4 and low-dose OVA", "conditions": "in vivo", "procedure": "as §1, §2"}, "P2Y12 receptors [3]": {"biological_target": "T1, P2Y12 receptors", "assay": "Clopidogrel effect on LTE4-mediated amplification of OVA-induced pulmonary inflammation", "format": "in vivo", "set-up": "from tissue; host or cells: whole animal: BALB/c (OVA model) and C57BL/6 (Der f model) mice", "procedure": "FIG. 4. […] 4A. […] Clopidogrel (500 μg/ml) was added to the drinking water of the indicated groups of mice for 72 h before the first intranasal dose of LTs, and was maintained throughout the treatment. Results are mean±SEM from at least 9 mice in each group. The experiments were repeated three times with similar results. 4B. PAS stains (left column) from representative mice in the indicated groups showing the effect of clopidigrel on goblet cell metaplasia. Higher magnification images of H & E stains (right) from the same animals showing cellular characteristics of the bronchovascular infiltrates. 4C. Effect of clopidogrel administration on the steady-state expression of IL-13 and MUC5AC mRNA as determined by real-time PCR of whole lung RNA extracted 24 h after the last OVA challenge of the indicated groups. Data are mean±SEM from 4-5 mice/group from a single experiment. Results in a second experiment were similar 4D-4F. […] 4D. Total cell numbers (top), percentages of eosinophils (middle), and total numbers of eosinophils in BAL fluid recovered 24 h after the last challenge with OVA. 4E. Goblet cell metaplasia (top) and representative PAS stains (bottom) from wild-type and p2ry12^−/− mice subjected to the same protocol. 4E. Inflammation scores from the same mice. Data in 4D-4F are from 4 mice per group. Results in a second experiment were similar 4G. BALB/c Cysltr1/Cysltr2^−/− mice and age-matched WT controls were subjected to the same protocol as the p2ry12^−/− mice. Total cell numbers (top), percentages of eosinophils (middle), and total numbers of eosinophils in BAL fluid recovered 24 h after the last challenge with OVA. Results are from 6 mice per group. Three experiments were performed with similar results. 4H. Goblet cell numbers (top) and representative PAS stains (bottom). 4I. Quantitative assessment of bronchovascular inflammation as determined by H & E stains. Results are from 6 mice/group.\nFIG. 5. Effect of clopidogrel on LTE4-mediated amplification of pulmonary inflammation. 5A. […] The indicated mice were treated with clopidogrel for 72 h before the first dose of leukotriene. Results are mean±SEM from a minimum of 9 mice in each group. 5B. PAS stains (left column) from representative mice in the indicated groups showing the effect of clopidigrel on goblet cell metaplasia. Higher magnification images of H & E stains (right) from the same animals showing cellular characteristics of the bronchovascular infiltrates. 5C. Effect of clopidogrel administration on the steady-state expression of IL-13 and MUC5AC mRNA as determined by real-time PCR of whole lung RNA extracted 24 h after the last OVA challenge of the indicated groups. Data are mean±SEM from 4-5 mice/group. […]"}, "P2Y receptor signaling": {"test_system": "P2Y receptor signaling", "conditions": "mouse, in vivo; cited from earlier work"}, "5-LO": {"biological_target": "T2, 5-LO (Homo sapiens, UniProt P09917)", "T2 sequence (P09917 1-674)": "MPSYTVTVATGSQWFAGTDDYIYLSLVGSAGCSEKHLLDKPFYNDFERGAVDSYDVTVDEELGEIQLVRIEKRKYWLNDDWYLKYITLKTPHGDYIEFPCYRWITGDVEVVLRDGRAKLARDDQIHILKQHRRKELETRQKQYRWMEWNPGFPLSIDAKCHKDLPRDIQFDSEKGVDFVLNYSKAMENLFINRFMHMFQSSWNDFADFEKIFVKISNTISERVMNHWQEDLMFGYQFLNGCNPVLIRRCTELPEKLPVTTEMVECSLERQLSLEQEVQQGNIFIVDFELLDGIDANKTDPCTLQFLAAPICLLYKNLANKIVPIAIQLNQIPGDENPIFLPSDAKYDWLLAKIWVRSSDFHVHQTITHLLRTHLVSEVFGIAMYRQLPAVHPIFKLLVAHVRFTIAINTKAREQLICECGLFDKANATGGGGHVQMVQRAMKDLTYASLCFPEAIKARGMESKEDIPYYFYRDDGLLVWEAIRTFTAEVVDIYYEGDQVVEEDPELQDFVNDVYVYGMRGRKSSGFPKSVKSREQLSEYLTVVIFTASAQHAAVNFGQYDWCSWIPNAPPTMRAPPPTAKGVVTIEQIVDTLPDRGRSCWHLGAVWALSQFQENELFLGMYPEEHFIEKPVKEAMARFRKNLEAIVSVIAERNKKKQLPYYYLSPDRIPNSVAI", "conditions": "cited from earlier work"}, "[4]": {"conditions": "clopidogrel 500 μg/ml in drinking water"}}, "data": [{"compound": "Nc1ncnc2c1ncn2[C@@H]1O[C@H](COP(=O)(O)OP(=O)(O)O)[C@@H](O)[C@H]1O", "note": "[ADP, adenosine diphosphate]", "values": [{"measurement": "calcium flux", "setting": "[1]", "result": "did exhibit a response"}, {"measurement": "CD62P expression by platelets", "setting": "human blood platelets", "result": "elicited CD62P expression"}]}, {"compound": "CCCCC/C=C\\C\\C=C/C=C/C=C/[C@@H](SC[C@H](NC(=O)CC[C@H](N)C(=O)O)C(=O)NCC(=O)O)[C@@H](O)CCCC(=O)O", "note": "[LTC4]", "values": [{"measurement": "binding to membranes of the transfectants", "setting": "human P2Y12", "result": "also bound"}]}, {"compound": "COC(=O)C(c1ccccc1Cl)N1CCc2sccc2C1", "note": "(stereo not drawn) [clopidogrel, methyl alpha-5 (4,5,6,7-tetrahydro (3,2-c)thienopyridyl)(2-chlorophenyl)-acetate]", "values": [{"measurement": "attenuation of BAL fluid eosinophilia", "setting": "P2Y12 receptors [2]", "result": "~75", "unit": "%"}, {"measurement": "goblet cell metaplasia", "setting": "P2Y12 receptors [2]", "result": "significant reductions"}, {"measurement": "pulmonary inflammation", "setting": "P2Y12 receptors [2]", "result": "significant reductions"}, {"measurement": "LTE4-mediated expression of mRNA encoding IL-13 and MUC5AC", "setting": "mouse CD42b (GPIbα)", "result": "sharply reduced"}, {"measurement": "combination of platelet depletion with clopidogrel", "setting": "mouse CD42b (GPIbα)", "result": "not additive"}, {"measurement": "LTE4-induced potentiation of goblet cell metaplasia", "setting": "P2Y12 receptors [3]; [4]", "result": "complete lack of LTE4-induced potentiation"}, {"measurement": "LTE4-induced potentiation of inflammation", "setting": "P2Y12 receptors [3]; [4]", "result": "complete lack of LTE4-induced potentiation"}, {"measurement": "lung expression of IL-13 and MUC5AC mRNA (real-time PCR)", "setting": "P2Y12 receptors [3]; whole lung RNA 24 h after last OVA challenge", "result": "substantially suppressed the expression of both"}]}, {"compound": "Cc1ccc(C(=O)Nc2ccc(S(=O)(=O)O)c3cc(S(=O)(=O)O)cc(S(=O)(=O)O)c23)cc1NC(=O)c1cccc(NC(=O)Nc2cccc(C(=O)Nc3cc(C(=O)Nc4ccc(S(=O)(=O)O)c5cc(S(=O)(=O)O)cc(S(=O)(=O)O)c45)ccc3C)c2)c1", "note": "[suramin]", "values": [{"measurement": "allergen-induced pulmonary inflammation and AHR", "setting": "P2Y receptor signaling", "result": "dramatically inhibited"}]}, {"compound": "CC(c1cc2ccccc2s1)N(O)C(N)=O", "note": "(stereo not shown) [zileuton]", "values": [{"measurement": "block of cys-LT generation in vivo", "setting": "5-LO", "result": "~50", "unit": "%"}]}]}
